According to US11390625B2, “Aryl-phosphorus-oxygen compound as EGFR kinase inhibitor” (Chia Tai Tianqing Pharmaceutical Group Co., Ltd., priority 2017, dated 2022):

Assays:
A431 cells (EGFR WT) = assay: Cell antiproliferation experiment (1), A431 cells, CellTiter Glo; type: cell-based; conditions: Homo sapiens, A-431, 72 h, read-out: anti-proliferation effect on cells A431 EGFR WT IC50
Experimental: 1) Cell Culture and Passage
(1) A431 medium: 88% DMEM+10% fetal bovine serum+1% L-glutamine+1% double-antibody
(2) A431 cells were isolated and passaged every 3-4 days, wherein the number of the cells for 3-day passage was 5e6 cells per T75 culture flask, and the number of the cells for 4-day passage was 3e6 cells per T75 culture flask.
2) Day 1: Preparation of Cell Plate
(1) Phosphate buffer, trypsin, and a culture medium were placed in a water bath at 37° C. to preheat.
(2) The original medium was removed from the cell culture flask and washed once with 6 mL of PBS.
(3) 5 mL of phosphate buffer was pipetted into the culture flask to rinse the cells (passage 17), and then the liquid was discarded.
(4) The cell culture flask was added with 3.5 mL of trypsin, and shaken gently, trypsin was removed after fully contact with the cells, and then the culture flask was placed in an incubator containing 5% CO2 at 37° C. for about 1 minute;
(5) The cells were resuspended in 10 mL cell culture medium, and about 0.6 mL of cell suspension was take out for counting (ViCell XR);
(6) The cell suspension was diluted with the medium to the cell density of 5e4 cells per ml, which was required for plating (cell concentration: 2500 cells per well);
(7) 100 μL of phosphate buffer solution was added to each well around the cell plate, while 50 μL of the cell suspension was added to other wells, and the plate was incubated overnight in a incubator containing 5% CO2 at 37° C.
(1) 9 μL of the compound (concentration: 1 mM) was added into a shallow well plate for Echo.
(2) The shallow well plate was centrifuged at 1000 rpm for 10 s and the cell plate was removed from the incubator.
(3) According to the layout of the microplate, the compounds was diluted with a three-fold concentration gradient using Echo, each compound was diluted to 10 concentration gradients and 250 nL of the diluted compounds was respectively added to the cell plate, and then the cell plate was returned to the incubator and further incubated for 3 days.
4) Day 5: Adding CTG and Reading the Plate
(1) After incubation for 72 h, 25 μL of CellTiter Glo was added to each well of the cell plate, followed by shaking the plate for 10 min in the dark.
(2) The plate was read on Envision.
Data analysis: By computer fitting, the corresponding concentration of the compound at 50% inhibition rate was read as the IC50 of the compound for inhibiting cell activity.

[1] = system: Ba/F3 (EGFR Δ19del/T790M/C797S) cells; assay: Anti-proliferation experiment on cells (2), Ba/F3 (EGFR Δ19del/T790M/C797S); type: cell-based; conditions: Ba/F3 EGFR, 72 h; Ba/F3 cells, 3 days; read-out: anti-proliferation effect on cells Ba/F3(Δ19del/T790M/C797S) IC50
Experimental: The compounds ware transferred to a 384-well plate, with 125 nL of compound per well. […] After 3 days, 25 μL of detection reagent was added. The plate was incubated at room temperature for 10 minutes and then read with Envision.

[2] = system: pEGFR Ba/F3 (EGFR Δ19del/T790M/C797S) cells; assay: Cell phosphorylation inhibition experiment, pEGFR Ba/F3 (EGFR Δ19del/T790M/C797S); type: cell-based; conditions: Ba/F3 EGFR; Ba/F3 cells, EGF stimulated; read-out: Effect on cellular EGFR phosphorylation Ba/F3(Δ19del/T790M/C797S) IC50
Experimental: The test compounds and reference compounds were diluted with 100% DMSO to 10 mM or 1 mM, and then a gradient dilution was performed by using Echo, 150 nL per well, with a three-fold concentration gradient and a ten-point dose response curve. The final concentration of the compounds was 100 μM or 10 μM. The suspension cells was centrifuged at 1000 rp for 5 minutes, suspend in Hanks' balanced salt solution, and added to a 384-well plate containing the compounds at 10 L/120K/well (the cell density of 1.2×10^7), followed by centrifugation at 1200 rpm for 30 s and incubation at 37° C. for 30 min. 5 μL of EGF (which has been diluted with 0.1% BSA Hanks' balanced salt solution) was added to each well, in which the final concentration of EGF was 1 μM. The plate was centrifuged at 1200 rpm for 30 s and incubated at 37° C. for 20 min. 5 μL of 4× lysis buffer containing blocking solution was added to each well, and then the plate was centrifuged at 1200 rpm for 30 s, and incubated at 37° C. for 30 min.

[3] = Plasma, tumor and lung exposure in mice of the Ba/F3 CDX efficacy experiment; type: in vivo; conditions: mouse, 15.0 mg/kg/day oral; for concentration at 2 h / Lung, 2 h / Tumor, 2 h: 2 h after administration
Experimental: On Day 14 after administration to the groups for the efficacy experiment, the plasma was collected from the mice by submandibular blood collection before last administration and 2 hours after last administration, and the plasma samples were collected from the mice at 1 h, 4 h, 8 h and 24 h after administration. About 100 ul of blood was collected each time, placed in an anticoagulation tube, and centrifuged at 8000 rpm for 7 min, to collect plasma, which was stored at −80° C.

[4] = system: Ba/F3 (Δ19del/T790M/C797S) xenograft; assay: In vivo efficacy (1): Ba/F3 (Δ19del/T790M/C797S) subcutaneous xenograft (CDX) in BALB/c nude mice; conditions: for TGI (the tumor inhibition value): 45 mg/kg oral daily, 13 consecutive days;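 as to all read-outs here: female nude mice, dosing begun at mean tumor size near 80–120 mm^3, tumors measured by caliper twice weekly, volume in mm^3 computed as 0.5×long×short diameter squared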
Experimental: BALB/c nude mice, female, 6-8 weeks old, 18-20 g of body weight, were housed in SPF-grade environment, and each cage was individually ventilated (5 mice per cage). […] A total of 48 mice purchased from Beijing Weitonglihua company were used for the study. Each mouse was implanted with cells at the right flank, for tumor growth. The experiment was started when the average tumor volume reached approximately 80-120 mm^3. […] Tumor volume was measured twice a week with a two-dimensional caliper, measured in mm^3 and calculated by the following formula: V=0.5a×b^2, wherein a and b are the long and short diameters of the tumor, respectively. Antitumor efficacy was determined by dividing the average increase of the tumor volume of the animals treated with the compound by the average increase of the tumor volume of the untreated animals.

COc1cc(N2CCC(N3CCN(C)CC3)CC2)c(C)cc1Nc1ncc(Br)c(Nc2ccc3nccnc3c2P(C)(C)=O)n1 [Compound 34]
IC50 (A431 cells (EGFR WT)): 154 nM
IC50 [1]: 22 nM
IC50 [2]: 19 nM
half-life ([3]; BALB/c nude, plasma): 10 h
concentration at 2 h ([3]; BALB/c nude, plasma): 3.55 µM
Lung, 2 h [3]: 32533 nmol/kg
Tumor, 2 h [3]: 16667 nmol/kg
Tumor volume Day 0 ([4]; 5 mg/kg/day oral): 84 mm^3
Tumor volume Day 2 ([4]; 5 mg/kg/day oral): 108 mm^3
Tumor volume Day 5 ([4]; 5 mg/kg/day oral): 212 mm^3
Tumor volume Day 8 ([4]; 5 mg/kg/day oral): 395 mm^3
Tumor volume Day 10 ([4]; 5 mg/kg/day oral): 505 mm^3
Tumor volume Day 12 ([4]; 5 mg/kg/day oral): 748 mm^3
Tumor volume Day 13 ([4]; 5 mg/kg/day oral): 881 mm^3
Tumor volume Day 0 ([4]; 15 mg/kg/day oral): 84 mm^3
Tumor volume Day 2 ([4]; 15 mg/kg/day oral): 76 mm^3
Tumor volume Day 5 ([4]; 15 mg/kg/day oral): 107 mm^3
Tumor volume Day 8 ([4]; 15 mg/kg/day oral): 126 mm^3
Tumor volume Day 10 ([4]; 15 mg/kg/day oral): 176 mm^3
Tumor volume Day 12 ([4]; 15 mg/kg/day oral): 292 mm^3
Tumor volume Day 13 ([4]; 15 mg/kg/day oral): 326 mm^3
TGI (the tumor inhibition value) [4]: 101%
Tumor volume Day 0 ([4]; 45 mg/kg/day oral): 84 mm^3
Tumor volume Day 2 ([4]; 45 mg/kg/day oral): 56 mm^3
Tumor volume Day 5 ([4]; 45 mg/kg/day oral): 32 mm^3
Tumor volume Day 8 ([4]; 45 mg/kg/day oral): 35 mm^3
Tumor volume Day 10 ([4]; 45 mg/kg/day oral): 42 mm^3
Tumor volume Day 12 ([4]; 45 mg/kg/day oral): 73 mm^3
Tumor volume Day 13 ([4]; 45 mg/kg/day oral): 68 mm^3

CCc1cc(Nc2ncc(Br)c(Nc3ccc4nccnc4c3P(C)(C)=O)n2)c(OC)cc1N1CCC(N2CCN(C)CC2)CC1 [Compound 41]
IC50 (A431 cells (EGFR WT)): 245 nM
IC50 [1]: 9 nM
IC50 [2]: 25 nM
AUC(0-t) ([3]; BALB/c nude, plasma): 122 µM·h
half-life ([3]; BALB/c nude, plasma): 20.5 h
concentration at 2 h ([3]; BALB/c nude, plasma): 6.99 µM
Lung, 2 h [3]: 29567 nmol/kg
Tumor, 2 h [3]: 18567 nmol/kg
Tumor volume Day 0 ([4]; 5 mg/kg/day oral): 84 mm^3
Tumor volume Day 2 ([4]; 5 mg/kg/day oral): 103 mm^3
Tumor volume Day 5 ([4]; 5 mg/kg/day oral): 203 mm^3
Tumor volume Day 8 ([4]; 5 mg/kg/day oral): 348 mm^3
Tumor volume Day 10 ([4]; 5 mg/kg/day oral): 485 mm^3
Tumor volume Day 12 ([4]; 5 mg/kg/day oral): 707 mm^3
Tumor volume Day 13 ([4]; 5 mg/kg/day oral): 814 mm^3
Tumor volume Day 0 ([4]; 15 mg/kg/day oral): 84 mm^3
Tumor volume Day 2 ([4]; 15 mg/kg/day oral): 68 mm^3
Tumor volume Day 5 ([4]; 15 mg/kg/day oral): 69 mm^3
Tumor volume Day 8 ([4]; 15 mg/kg/day oral): 82 mm^3
Tumor volume Day 10 ([4]; 15 mg/kg/day oral): 115 mm^3
Tumor volume Day 12 ([4]; 15 mg/kg/day oral): 146 mm^3
Tumor volume Day 13 ([4]; 15 mg/kg/day oral): 211 mm^3
TGI (the tumor inhibition value) [4]: 109%
Tumor volume Day 0 ([4]; 45 mg/kg/day oral): 84 mm^3
Tumor volume Day 2 ([4]; 45 mg/kg/day oral): 47 mm^3
Tumor volume Day 5 ([4]; 45 mg/kg/day oral): 24 mm^3
Tumor volume Day 8 ([4]; 45 mg/kg/day oral): 7 mm^3
Tumor volume Day 10 ([4]; 45 mg/kg/day oral): 4 mm^3
Tumor volume Day 12 ([4]; 45 mg/kg/day oral): 0 mm^3
Tumor volume Day 13 ([4]; 45 mg/kg/day oral): 0 mm^3
